This is an account of results in US20120108501A1, “Protease Inhibitors” (priority 2009, published 2012).

Data set [1] in a line: Pharmacokinetics of PEGylated protease inhibitor prodrugs in rats. Details: AUCall / AUC: concentration or dose not given beside the values. To be noted: prodrug in plasma; for AUCall / Cmax: mean ± SD. It counts as in vivo, male Sprague-Dawley rats. The protocol:
Pharmacokinetic analysis of protease inhibitors described herein was conducted. To evaluate the pharmacokinetics of PEGylated protease inhibitor conjugates with releasable lipophilic attachments, test compounds were administered to male Sprague-Dawley rats.
At various times following test article administration, serial blood samples were collected from indwelling jugular vein catheters and transferred to micro-tubes containing 7.5 μL of 20% w/v K2EDTA as an anticoagulant. Following processing of the blood samples to plasma (10 minutes at 10000 rpm, Centrifuge Model: Kubota 3500), plasma concentrations of the test article or corresponding PEGylated molecule released from the test article was measured using LC-MS/MS methods. Pharmacokinetic parameters were estimated using noncompartmental methods.
Table 3 presents a summary of pharmacokinetic parameters of PEGylated protease inhibitor prodrugs, wherein Cmax is the maximum (peak) concentration, AUCall represents the area under the concentration-time curve from zero to time of last concentration value, T½ is half life, and MRTlast is the mean residence time to last observable concentration

The nature of data set [2]: Pharmacokinetics of released PEGylated protease inhibitor following P.O. administration of prodrugs in rats. Conditions: rats (n = 4-5). In kind it is in vivo, male Sprague-Dawley rats. Details: AUCall Mean: concentration or dose not given beside the values; C24 Mean: unit not given here. In outline: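 Prodrugs given orally to male Sprague-Dawley rats, with serial blood via jugular catheter into K2EDTA. Plasma levels of test article or released PEGylated inhibitor measured by LC-MS/MS. PK parameters from noncompartmental analysis.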

The mark [3] stands for this setting: mPEG3-atazanavir in plasma after PO administration of mPEG3-ATV or of the listed prodrug.
The mark [4] stands for this setting: mPEG5-atazanavir in plasma after PO administration of mPEG5-ATV or of the listed prodrug.
[5] abbreviates: mPEG6-atazanavir in plasma after PO administration of mPEG6-ATV or of the listed prodrug.

Turning to `CCOC(C)OC(CN(Cc1ccc(-c2ccccn2)cc1)NC(=O)C(NC(=O)OC)C(C)(C)C)C(Cc1ccccc1)NC(=O)C(NC(=O)OCCOCCOCCOC)C(C)(C)C` (mixture of isomers) [1-ethoxyethoxy-mPEG3-Atazanivir, ethoxy ethoxy mPEG3-atazanavir], in data set [1], the MRTlast stood at 1.62 ± 0.350 h, the “t½(z)” value amounted to 2.01 ± 0.88 h, the “Cmin(24 hr)” value is reported as 0.370 ± 0.455 ng/mL and the AUCall amounted to 3950 ± 2740 ng·h/mL. In addition, the Cmax in data set [1] is recorded as 1370 ± 549 ng/mL. In addition, in data set [2] (setting [3]), the “AUCall Mean” value was found to be 500 ng·h/mL, the “Cmax Mean” value is on record as 154 ng/mL, the “MRT last Mean” value was 2.35 h and the “Tmax* Median” value came out at 0.500 h.

On to `COCCOCCOCCOCCOCCOC(=O)N[C@H](C(=O)N[C@@H](Cc1ccccc1)[C@H](CN(Cc1ccc(-c2ccccn2)cc1)NC(=O)[C@@H](NC(=O)OC)C(C)(C)C)OC(=O)[C@H](Cc1ccccc1)NC(=O)[C@@H](N)CC(C)C)C(C)(C)C.Cl` [Leu-Phe-mPEG5-Atazanavir HCl, Leu-Phe-mPEG5-Atazanavir Hydrochloride], for which, in data set [1], the MRTlast turned out to be 7.57 ± 7.76 h, the “t½(z)” value was found to be 0.825 h, the “Cmin(24 hr)” value turned out to be 1.16 ± 2.31 ng/mL and the AUCall stood at 53.8 ± 34.1 ng·h/mL. In addition, the Cmax in data set [1] is 16.5 ± 14.9 ng/mL. Besides, in data set [2] (setting [4]), the “AUCall Mean” value stood at 147 ng·h/mL, the “Cmax Mean” value came to 25.6 ng/mL, the “MRT last Mean” value was 9.33 h and the “Tmax Median” value amounted to 1.50 h.

Turning to `COCCOCCOCCOC(=O)NC(C(=O)NC(Cc1ccccc1)C(CN(Cc1ccc(-c2ccccn2)cc1)NC(=O)C(NC(=O)OC)C(C)(C)C)OC(=O)C(N)CC(C)C)C(C)(C)C.Cl` [mono-mPEG3-Atazanavir-L-Leucine, mPEG3-Atazanavir-L-Leucine], in data set [1], the MRTlast stood at 2.73 ± 0.912 h, the “t½(z)” value was 3.33 ± 0.958 h, the AUCall was 1930 ± 1170 ng·h/mL and the Cmax is given as 470 ± 179 ng/mL. Besides, in data set [2] (setting [3]), the “AUCall Mean” value came to 347 ng·h/mL, the “Cmax Mean” value is on record as 66.0 ng/mL, the “MRT last Mean” value was determined as 4.14 h and the “Tmax* Median” value came to 0.750 h.

Consider “mPEG3-atazanavir-ethoxy-CME-Leu-Leu [mPEG-3-Atazanavir-Ethoxy-CM-Leu-Leu]”, for which, in data set [1], the MRTlast turned out to be 1.01 ± 0.095 h, the “t½(z)” value stood at 1.21 NC^ hr, the AUCall was found to be 8.27 ± 3.06 ng·h/mL and the Cmax was found to be 2.95 ± 1.30 ng/mL. Further, in data set [2] (setting [3]), the “AUCall Mean” value amounted to 148 ng·h/mL, the “Cmax Mean” value turned out to be 6.42 ng/mL, the “MRT last Mean” value was 16.5 h and the “Tmax* Median” value worked out at 9.00 h.

For the molecule `COCCOCCOCCOCCOCCOCCOC(=O)NC(C(=O)NC(Cc1ccccc1)C(CN(Cc1ccc(-c2ccccn2)cc1)NC(=O)C(NC(=O)OC)C(C)(C)C)OC(=O)COCCOC(=O)C(N)Cc1ccccc1)C(C)(C)C.Cl` (stereo not drawn) [mPEG6-Atazanavir-CME-phenylalanine HCl], in data set [1], the MRTlast was determined as 0.948 ± 0.0741 h, the AUCall stood at 6.41 ± 9.53 ng·h/mL and the Cmax is reported as 8.21 ± 12.1 ng/mL. For the same molecule, in data set [2] (setting [5]), the “AUCall Mean” value stood at 351 ng·h/mL, the “Cmax Mean” value was 12.5 ng/mL, the “MRT last Mean” value was 22.1 h and the “Tmax Median” value is 1.00 h.

On to Methoxyacetate Ester-mPEG5-Atazanavir, for which, in data set [1], the MRTlast was 5.81 ± 2.95 h, the “t½(z)” value is 6.30 ± 2.06 h, the AUCall is 298 ± 121 ng·h/mL and the Cmax came to 38.7 ± 13.8 ng/mL. Moreover, in data set [2] (setting [4]), the “AUCall Mean” value stood at 298 ng·h/mL, the “Cmax Mean” value is 38.7 ng/mL, the “MRT last Mean” value worked out at 5.81 h and the “Tmax Median” value was 1.50 h.

Turning to `COCCOCCOCCOCCOCCOCCOC(=O)NC(C(=O)NC(Cc1ccccc1)C(CN(Cc1ccc(-c2ccccn2)cc1)NC(=O)C(NC(=O)OC)C(C)(C)C)OC(=O)C(N)CC(C)C)C(C)(C)C.Cl` [mPEG6-Atazanavir-L-Leucine], in data set [1], the MRTlast is 1.72 ± 0.237 h, the “t½(z)” value came out at 2.02 ± 1.07 h, the AUCall is 107 ± 62.4 ng·h/mL and the Cmax was determined as 55.5 ± 41.6 ng/mL. In addition, in data set [2] (setting [5]), the “AUCall Mean” value is 148 ng·h/mL, the “Cmax Mean” value came out at 9.49 ng/mL, the “MRT last Mean” value is 10.2 h and the “Tmax Median” value was found to be 0.500 h.

For the molecule `CCOCO[C@@H](CN(Cc1ccc(-c2ccccn2)cc1)NC(=O)[C@@H](NC(=O)OC)C(C)(C)C)[C@H](Cc1ccccc1)NC(=O)[C@@H](NC(=O)OCCOCCOCCOC)C(C)(C)C` [mPEG3-Atazanavir-methyl ethyl ether, mPEG3-Atazanavir Methyl Ethyl Ether], in data set [1], the MRTlast is 2.44 ± 0.920 h, the “t½(z)” value is 9.41 ± 3.35 h, the “Cmin(24 hr)” value amounted to 0.797 ± 0.260 ng/mL and the AUCall stood at 6590 ± 2150 ng·h/mL. Besides, in data set [1], the Cmax came out at 1600 ± 442 ng/mL. Moreover, the “C24 Mean” value in data set [2] (concentration at 24 hours, mPEG3-atazanavir in plasma after PO administration of mPEG3-ATV or of the listed prodrug) turned out to be 1.20. In data set [2] (setting [3]), the “AUCall Mean” value is 822 ng·h/mL, the “Cmax Mean” value is 190 ng/mL, the “MRT last Mean” value was 3.29 h and the “Tmax* Median” value worked out at 0.750 h.

As for `COCCOCCOCCOCCOCCOC(=O)N[C@H](C(=O)N[C@@H](Cc1ccccc1)[C@H](CN(Cc1ccc(-c2ccccn2)cc1)NC(=O)[C@@H](NC(=O)OC)C(C)(C)C)OC(=O)[C@H](Cc1ccccc1)NC(=O)[C@@H](N)Cc1ccccc1)C(C)(C)C.Cl` [Phe-Phe-mPEG5-Atazanavir HCl, Phe-Phe-mPEG5-atazanavir hydrochloride], in data set [1], the MRTlast stood at 1.49 ± 0.412 h, the “t½(z)” value turned out to be 2.01 h, the AUCall is 31.8 ± 13.7 ng·h/mL and the Cmax amounted to 17.9 ± 9.09 ng/mL. In addition, in data set [2] (setting [4]), the “AUCall Mean” value came to 94.3 ng·h/mL, the “Cmax Mean” value is reported as 12.9 ng/mL, the “MRT last Mean” value is 9.22 h and the “Tmax Median” value was found to be 0.750 h.

Turning to `COCCOCCOCCOC(=O)N[C@H](C(=O)N[C@@H](Cc1ccccc1)[C@H](CN(Cc1ccc(-c2ccccn2)cc1)NC(=O)[C@@H](NC(=O)OC)C(C)(C)C)OCOC)C(C)(C)C` [mPEG3-Atazanavir-methyl methyl ether, mPEG3-Atazanavir Methyl Methyl Ether], in data set [1], the MRTlast is 3.00 ± 0.350 h, the “t½(z)” value was 4.03 ± 1.33 h, the “Cmin(24 hr)” value is reported as 6.52 ± 3.57 ng/mL and the AUCall is 7740 ± 935 ng·h/mL. Besides, the Cmax in data set [1] worked out at 1680 ± 150 ng/mL. In data set [2] (setting [3]), the “AUCall Mean” value is 110 ng·h/mL, the “Cmax Mean” value is given as 23.0 ng/mL, the “MRT last Mean” value was 3.26 h and the “Tmax* Median” value is 1.00 h.
